Experimental data from patent US9855243B2, “Topical anti-inflammatory pharmaceutical composition with zileuton cream formulation” (Qurient Co., Ltd., priority 2013, dated 2018).

How the values were obtained:
[1] = Physical stability, phase separation checked with the naked eye; format: physicochemical; details: solvent screened in cream composition
Description: This is a test to discover an optimized processing method for obtaining a cream formulation.

[2] = Screening of excipient suitability: zileuton with excipient, stability at 50° C.; format: physicochemical; details: changes of TRS % up to 4 weeks at 50° C.
Description: Suitability of components generally used in cream formulation with respect to zieluton was screened, prior to preparing a zieluton cream formulation. […] That is, the stability of excipient at 50° C. was tested.

CN1CCCC1=O [NMP, N-methyl pyrrolidone]
Physical stability of cream made with this solvent [1]: bad physical stability

OCc1ccccc1 [benzyl alcohol]
Physical stability of cream made with this solvent [1]: bad physical stability

CCO [ethanol]
Physical stability of cream made with this solvent [1]: deteriorates physical stability

CCCCCCCCCCCCCCCCCCO [stearyl alcohol]
Suitability of excipient with respect to zileuton [2]: suitable
